Broadly, the IC50 is the concentration needed to halve the response being measured. A word on the Kd: it is the free concentration of one partner at which half of the binding sites on the other are occupied at equilibrium, for simple one-to-one binding.

Read-outs that look alike come from different tables or passages of the source.

Assay [1] concerns T47D pAKT (S473), PI3Kα H1047R mutation present. Description: HTRF pAKT-T47D.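 Note: assay medium was RPMI with 10% FBS and 0.2 units/ml bovine insulin, without phenol red.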 On the technique in general: In TR-FRET formats the signal depends on donor and acceptor labels being close together.
Description: Homogenous Time-Resolved Fluorescence (HTRF)—pAKT-T47D
Compounds were assayed using homogeneous time-resolved fluorescence (HTRF).
Gibco RPMI 1640 Medium, no phenol red; Gibco RPMI 1640 Medium; Gibco Trypsin-EDTA (0.5%), no phenol red; Gibco DPBS; Trypan blue solution 0.4% (Corning); Avantor Seradigm Premium Grade Fetal Bovine Serum (FBS); Greiner 784080-384 well TC treated white plates; pAKT (Ser473) HTRF; Gibco Insulin, human recombinant, zinc solution; Gibco Recovery Cell Culture Freezing Medium; Countess II FL Automated Cell Counter (ThermoFisher); Countess II Slides (ThermoFisher); Microscope; and PHERAstar FSX Microplate Reader (BMG LABTECH, Inc.).
The scinamic cell line ID was T47D.1, the HTRF detection was pAKT (S473), a PI3Kα H1047R mutation was present, the seeding density was 5000, the timepoint was 1 hour, and the medium used was RPMI+10% FBS (no phenol red)+0.2 units/ml bovine insulin.
• The cell density was not permitted to reach 100% confluence. The cells were split 1:5 when they reached ˜80% confluence. • Cells were split twice a week (Mon and Fri). • Cells over passage 18 were not used (˜2 months of maintenance). • Antibiotics were not used for tissue culture maintenance or assays. […] Protocol Day1
The procedure was as follows: • 1. Prepared ARP: • a. Stamped 12.5 nL from 10 μmM source plate to destination plate using Echo. Sealed plate immediately and froze at −20° C. if it was not used on the same day. • b. If a frozen ARP was used, the plate was thawed and spun at 1000 rpm×1 min. • 2. Preparation of cells (adherent): • a. Aspirated media from cells. Washed cells with sterile 1XPBS. Aspirated PBS and added appropriate amount of Trypsin. • b. Once cells were fully trypsinized, added appropriate media to resuspend cells. Transferred cells to a 15 mL or 50 mL conical tube. • c. Counted cells on the Countess II Cell Counter. • 3. Plating of cells: • a. Prepared cells at appropriate plating density. Dispensed 12 μL of diluted cells per well of a Greiner 784080-384 well TC treated white plate using a Multidrop Combi to columns 1-23. Added 12 uL of appropriate phenol free media only to column 24. • b. Placed plates in 37° C. tissue culture incubator for appropriate treatment time (refer to “Assay” table). • 4. Prepared HTRF Lysis Buffer • a. Calculate the amount of HTRF lysis buffer master mix needed to perform the desired experiments plus any extra dead volume required for dispensing (4 μL required per well). […] Add 4 uL Lysis buffer master mix to all wells with sample or DMSO. Centrifuge the plates for 1 minute at 1000 rpm. • c. Incubate at room temperature for 30 minutes. • 5. Prepared HTRF Antibody • a.
The target of assay [2] is T1, PI3Kα H1047R protein (p110-α H1047R complexed with truncated p85-α) (Homo sapiens, UniProt P42336, H1047R).
T1 construct: The protein contained a full-length p110-α subunit harboring the H1047R mutation
Description: Surface Plasmon Resonance (SPR) binding, wortmannin-blocked protein. The note with it: Biacore 8K, ATP site blocked with 1 μM wortmannin, 25° C. On the procedure: Surface Plasmon Resonance (SPR)
SPR experiments were performed on a Biacore 8K instrument. A biotinylated recombinant PI3Kα H1047R protein was used in this study. The protein contained a full-length p110-α subunit harboring the H1047R mutation with an N-terminal AviTag, complexed with a truncated p85-α subunit (amino acid residues 322-694). The protein was first incubated with 1 μM wortmannin for 30 min at RT to covalently block the ATP binding site, then immobilized onto a streptavidin sensor chip by flowing the protein through the sensor chip at typically 20 μg/mL concentration and 2 μL/min flow rate for 1200 seconds. Compound binding affinities were measured in the multi-cycle kinetics mode, at 90 μL/min flow rate with 90 seconds association time and 240 seconds dissociation time. The running buffer contained 50 mM Tris, pH 7.5, 150 mM NaCl, 0.01% Brij35, 1 mM DTT, 1 mM MgCl2, 0.05% Tween-20 and 2% DMSO. Temperature was maintained at 25° C. during experiments.

Where [3] appears, read: Homo sapiens, T47D, 1 h, read-out: T47D pAKT IC50 (nM), T47D.1 cells, pAKT (S473) HTRF, 1 hour.

T1 sequence (P42336 whole entry H1047R, the tested form may be a part): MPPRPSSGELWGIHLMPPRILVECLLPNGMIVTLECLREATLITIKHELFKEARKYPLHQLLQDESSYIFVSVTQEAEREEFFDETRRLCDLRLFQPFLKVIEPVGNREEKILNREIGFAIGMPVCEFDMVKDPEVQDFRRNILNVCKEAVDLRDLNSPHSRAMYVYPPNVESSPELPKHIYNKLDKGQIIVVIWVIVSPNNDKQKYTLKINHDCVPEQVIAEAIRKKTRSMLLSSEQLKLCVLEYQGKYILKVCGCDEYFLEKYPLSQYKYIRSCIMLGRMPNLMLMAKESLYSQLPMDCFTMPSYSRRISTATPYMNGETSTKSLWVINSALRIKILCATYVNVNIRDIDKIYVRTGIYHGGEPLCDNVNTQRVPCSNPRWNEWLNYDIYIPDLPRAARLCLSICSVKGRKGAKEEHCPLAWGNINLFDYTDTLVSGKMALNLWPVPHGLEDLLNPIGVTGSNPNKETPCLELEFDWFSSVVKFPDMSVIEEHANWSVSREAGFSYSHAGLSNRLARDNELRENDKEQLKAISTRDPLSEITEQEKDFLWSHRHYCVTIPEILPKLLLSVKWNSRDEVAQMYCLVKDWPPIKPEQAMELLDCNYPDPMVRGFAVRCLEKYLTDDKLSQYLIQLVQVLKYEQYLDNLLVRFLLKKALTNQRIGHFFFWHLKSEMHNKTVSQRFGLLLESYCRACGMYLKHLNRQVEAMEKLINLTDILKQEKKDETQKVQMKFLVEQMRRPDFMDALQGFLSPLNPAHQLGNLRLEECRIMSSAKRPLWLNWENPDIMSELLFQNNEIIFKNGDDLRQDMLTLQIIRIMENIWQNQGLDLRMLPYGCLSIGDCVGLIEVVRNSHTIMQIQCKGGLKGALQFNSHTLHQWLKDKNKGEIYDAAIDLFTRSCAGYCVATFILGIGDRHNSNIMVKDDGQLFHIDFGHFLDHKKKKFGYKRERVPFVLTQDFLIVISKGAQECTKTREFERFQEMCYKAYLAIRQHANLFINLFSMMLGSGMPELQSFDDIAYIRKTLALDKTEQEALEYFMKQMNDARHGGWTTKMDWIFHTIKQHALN
T1 sequence (P27986 322-694 partner limits assumed): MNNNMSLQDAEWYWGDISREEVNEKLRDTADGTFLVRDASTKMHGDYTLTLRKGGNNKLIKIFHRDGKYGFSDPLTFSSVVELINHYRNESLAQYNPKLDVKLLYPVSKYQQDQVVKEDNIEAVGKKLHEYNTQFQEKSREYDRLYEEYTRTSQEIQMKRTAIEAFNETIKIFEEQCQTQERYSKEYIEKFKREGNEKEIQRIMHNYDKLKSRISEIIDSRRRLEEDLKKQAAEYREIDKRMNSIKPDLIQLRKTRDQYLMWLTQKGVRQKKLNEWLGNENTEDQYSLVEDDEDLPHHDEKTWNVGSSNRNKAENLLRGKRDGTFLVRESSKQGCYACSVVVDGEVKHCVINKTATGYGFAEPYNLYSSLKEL

With `Cc1c([C@@H](NC(=O)N[C@H]2CCC[C@H](C(N)=O)C2)C(C)C)oc2ccc(F)cc12` [Compound 31, (1S,3S)-3-(3-((S)-1-(5-fluoro-3-methylbenzofuran-2-yl)-2-methylpropyl)ureido) cyclohexane-1-carboxamide], in assay [1] (setting [3]), the IC50 is above 5000 nM. For the same compound, the Kd in assay [2] fell in the range of 250 to 500 nM.
For `Cc1c([C@@H](NC(=O)Nc2ccc3c(c2)CNC3=O)C(C)C)oc2ccc(F)cc12` [Compound 33, (S)-1-(1-(5-fluoro-3-methylbenzofuran-2-yl)-2-methylpropyl)-3-(1-oxoisoindolin-5-yl)urea], in that order: below 1000 nM and below 100 nM.
For `Cc1c([C@@H](NC(=O)Nc2ccc3c(c2)C(=O)NC3)C(C)C)oc2ccc(F)cc12` [Compound 34, (S)-1-(1-(5-fluoro-3-methylbenzofuran-2-yl)-2-methylpropyl)-3-(3-oxoisoindolin-5-yl)urea], in that order: 1000 to 5000 nM and below 100 nM.
The matching figures for `Cc1c([C@@H](NC(=O)Nc2cncc(C#N)c2)C(C)C)oc2ccc(F)cc12` [Compound 35, (S)-1-(5-cyanopyridin-3-yl)-3-(1-(5-fluoro-3-methylbenzofuran-2-yl)-2-methylpropyl)urea]: 1000 to 5000 nM and 250 to 500 nM.
For `Cc1c([C@@H](NC(=O)Nc2cccnc2)C2CC2)oc2ccc(F)cc12` [Compound 37, (S)-1-(cyclopropyl(5-fluoro-3-methylbenzofuran-2-yl)methyl)-3-(pyridin-3-yl)urea], the IC50 in assay [1] (setting [3]) is above 5000 nM. Besides, the Kd in assay [2] was at least 500 nM.
The matching figures for `Cc1c([C@@H](NC(=O)Nc2ccc(N)nc2)C(C)C)oc2ccc(F)cc12` [Compound 38, (S)-1-(6-aminopyridin-3-yl)-3-(1-(5-fluoro-3-methylbenzofuran-2-yl)-2-methylpropyl)urea]: below 1000 nM and 100 to 250 nM.
The matching figures for `Cc1c([C@@H](NC(=O)Nc2cnc(N)nc2)C(C)C)oc2ccc(F)cc12` [Compound 39, (S)-1-(2-aminopyrimidin-5-yl)-3-(1-(5-fluoro-3-methylbenzofuran-2-yl)-2-methylpropyl)urea]: below 1000 nM and below 100 nM.
The matching figures for `Cc1c([C@@H](NC(=O)Nc2ccnc(C(N)=O)c2)C(C)C)oc2ccc(F)cc12` [Compound 40, (S)-4-(3-(1-(5-fluoro-3-methylbenzofuran-2-yl)-2-methylpropyl)ureido)picolinamide]: 1000 to 5000 nM and 250 to 500 nM.
`Cc1c([C@@H](NC(=O)Nc2ccc(C(N)=O)nc2)C(C)C)oc2ccc(F)cc12` [Compound 41, (S)-5-(3-(1-(5-fluoro-3-methylbenzofuran-2-yl)-2-methylpropyl)ureido)picolinamide]: the IC50 in assay [1] (setting [3]) was below 1000 nM. Further, the Kd in assay [2] was below 100 nM.
The matching figures for `Cc1c([C@@H](NC(=O)N[C@@H]2CCCS(=O)(=O)C2)C(C)C)oc2ccc(F)cc12` [Compound 43, 1-((R)-1,1-dioxidotetrahydro-2H-thiopyran-3-yl)-3-((S)-1-(5-fluoro-3-methylbenzofuran-2-yl)-2-methylpropyl)urea]: 1000 to 5000 nM and 100 to 250 nM.
The matching figures for `Cc1c([C@@H](NC(=O)N[C@H]2CCCS(=O)(=O)C2)C(C)C)oc2ccc(F)cc12` [Compound 44, 1-((S)-1,1-dioxidotetrahydro-2H-thiopyran-3-yl)-3-((S)-1-(5-fluoro-3-methylbenzofuran-2-yl)-2-methylpropyl)urea]: 1000 to 5000 nM and 250 to 500 nM.
For `Cc1c([C@@H](NC(=O)Nc2cncc(C(N)=O)c2)C2CC2)oc2ccc(F)cc12` [Compound 45, (S)-5-(3-(cyclopropyl(5-fluoro-3-methylbenzofuran-2-yl)methyl)ureido)nicotinamide], in that order: 1000 to 5000 nM and 100 to 250 nM.
In the case of `Cc1c([C@@H](NC(=O)Nc2cn[nH]c2)C(C)C)oc2ccc(F)cc12` [Compound 47, (S)-1-(1-(5-fluoro-3-methylbenzofuran-2-yl)-2-methylpropyl)-3-(1H-pyrazol-4-yl)urea], the IC50 in assay [1] (setting [3]) was in the range of 1000 to 5000 nM. Also, the Kd in assay [2] lay within 100 to 250 nM.
The matching figures for `Cc1c([C@@H](NC(=O)Nc2ccc(S(N)(=O)=O)nc2)C2CC2)oc2ccc(F)cc12` [Compound 48, (S)-5-(3-(cyclopropyl(5-fluoro-3-methylbenzofuran-2-yl)methyl)ureido)pyridine-2-sulfonamide]: 1000 to 5000 nM and 100 to 250 nM.
For `Cc1c([C@@H](NC(=O)Nc2cccc(C(N)=O)c2)C(C)C)oc2c(F)cc(F)cc12` [Compound 52, (S)-3-(3-(1-(5,7-difluoro-3-methylbenzofuran-2-yl)-2-methylpropyl)ureido)benzamide], in that order: below 1000 nM and below 100 nM.
For the compound `Cc1c([C@@H](NC(=O)Nc2cncc(C(=O)N(C)C)c2)C(C)C)oc2ccc(F)cc12` [Compound 56, (S)-5-(3-(1-(5-fluoro-3-methylbenzofuran-2-yl)-2-methylpropyl)ureido)-N,N-dimethylnicotinamide], in assay [1] (setting [3]), the IC50 is below 1000 nM. Moreover, the Kd in assay [2] is below 100 nM.
Take `Cc1c([C@@H](NC(=O)Nc2cnc(C(=O)N(C)C)nc2)C(C)C)oc2ccc(F)cc12` [Compound 59, (S)-5-(3-(1-(5-fluoro-3-methylbenzofuran-2-yl)-2-methylpropyl)ureido)-N,N-dimethylpyrimidine-2-carboxamide]: the half-maximal inhibitory concentration (IC50) in assay [1] (setting [3]) was below 1000 nM. For the same compound, the Kd in assay [2] lay within 100 to 250 nM.
For the compound `CNC(=O)c1cncc(NC(=O)N[C@H](c2oc3ccc(F)cc3c2C)C(C)C)c1` [Compound 60, (S)-5-(3-(1-(5-fluoro-3-methylbenzofuran-2-yl)-2-methylpropyl)ureido)-N-methylnicotinamide], in assay [1] (setting [3]), the IC50 lay within 1000 to 5000 nM. Also, the equilibrium dissociation constant (Kd) in assay [2] fell in the range of 100 to 250 nM.
For `Cc1c([C@@H](NC(=O)Nc2cncc(C(=O)N3CCNCC3)c2)C(C)C)oc2ccc(F)cc12` [Compound 61, (S)-1-(1-(5-fluoro-3-methylbenzofuran-2-yl)-2-methylpropyl)-3-(5-(piperazine-1-carbonyl)pyridin-3-yl)urea], in that order: 1000 to 5000 nM and 100 to 250 nM.
For `Cc1c([C@@H](NC(=O)Nc2cncc(C(=O)O)c2)C(C)C)oc2ccc(F)cc12` [Compound 62, (S)-5-(3-(1-(5-fluoro-3-methylbenzofuran-2-yl)-2-methylpropyl)ureido)nicotinic acid], in that order: above 5000 nM and below 100 nM.
For `Cc1c([C@@H](NC(=O)Nc2cncc(C(=O)N3CCC3)c2)C(C)C)oc2ccc(F)cc12` [Compound 63, (S)-1-(5-(azetidine-1-carbonyl)pyridin-3-yl)-3-(1-(5-fluoro-3-methylbenzofuran-2-yl)-2-methylpropyl)urea], in that order: below 1000 nM and below 100 nM.
On to `Cc1c([C@@H](NC(=O)Nc2ccc(C(=O)N3CC(F)C3)nc2)C(C)C)oc2ccc(F)cc12` [Compound 64, (S)-1-(1-(5-fluoro-3-methylbenzofuran-2-yl)-2-methylpropyl)-3-(6-(3-fluoroazetidine-1-carbonyl)pyridin-3-yl)urea], for which the IC50 in assay [1] (setting [3]) lay within 1000 to 5000 nM. For the same compound, the Kd in assay [2] was below 100 nM.
For `Cc1c([C@@H](NC(=O)Nc2ccc(C(=O)N(C)C)nc2)C(C)C)oc2ccc(F)cc12` [Compound 65, (S)-5-(3-(1-(5-fluoro-3-methylbenzofuran-2-yl)-2-methylpropyl)ureido)-N,N-dimethylpicolinamide], in that order: 1000 to 5000 nM and 100 to 250 nM.
With `Cc1c([C@@H](NC(=O)Nc2cnc(N)nc2)C(C)C)oc2ccc(F)cc12` [Compound 66, (S)-1-(2-aminopyrimidin-5-yl)-3-(1-(5-fluoro-3-methylbenzofuran-2-yl)-2-methylpropyl)urea], in assay [1] (read-out: T47D pAKT IC50, T47D.1 cells, pAKT (S473) HTRF, 1 hour), the 50% inhibitory concentration (IC50) was 1000 to 5000 nM. Further, the dissociation constant Kd in assay [2] is below 100 nM.
Regarding `Cc1c([C@@H](NC(=O)Nc2ccc(N3CCC3)nc2)C(C)C)oc2ccc(F)cc12` [Compound 71, (S)-1-(6-(azetidin-1-yl)pyridin-3-yl)-3-(1-(5-fluoro-3-methylbenzofuran-2-yl)-2-methylpropyl) urea], in assay [1] (setting [3]), the IC50 was below 1000 nM. Also, the Kd in assay [2] was below 100 nM.
For `Cc1c([C@@H](NC(=O)Nc2cnc(N3CC(F)(F)C3)nc2)C(C)C)oc2ccc(F)cc12` [Compound 72, (S)-1-(2-(3,3-difluoroazetidin-1-yl)pyrimidin-5-yl)-3-(1-(5-fluoro-3-methylbenzofuran-2-yl)-2-methylpropyl)urea], in that order: below 1000 nM and below 100 nM.
For `Cc1c([C@@H](NC(=O)Nc2cnc(N3CC(F)C3)nc2)C(C)C)oc2ccc(F)cc12` [Compound 73, (S)-1-(1-(5-fluoro-3-methylbenzofuran-2-yl)-2-methylpropyl)-3-(2-(3-fluoroazetidin-1-yl)pyrimidin-5-yl)urea], in that order: below 1000 nM and below 100 nM.
The matching figures for `Cc1c([C@@H](NC(=O)Nc2cnc(N3CCC3)nc2)C(C)C)oc2ccc(F)cc12` [Compound 74]: below 1000 nM and below 100 nM.

(Values after patent US12084434B2 (Scorpion Therapeutics, Inc., priority 2021, dated 2024).)
